Data reported in publication PMC5754397, “Population pharmacokinetics of nintedanib, an inhibitor of tyrosine kinases, in patients with non-small cell lung cancer or idiopathic pulmonary fibrosis” (Cancer Chemotherapy and Pharmacology, 2017).

Key:
[1] = design: method as in PMID 20460487, PMID 25299232; details: cited from earlier work
[2] = clinical; details: human, in vivo
Protocol: An overview of these studies is provided in Online Resource Table S1. […] Treatment continued until disease progression or intolerable toxicity. […] Treatment cycles were continued until disease progression or intolerable toxicity. […] In all four trials, dose reductions and interruptions were allowed to manage adverse events. All studies were conducted in accordance with the Declaration of Helsinki and with approval of the local ethics committees. Written informed consent was obtained from all patients before study entry. Blood sampling schema for measurement of nintedanib plasma concentrations varied. For all trials, at least two pre-dose and two post-dose blood samples were scheduled during treatment (see Online Resource Table S1). In addition, more extensive sampling was performed in the two Phase II trials. Nintedanib and BIBF 1202 plasma concentrations were analyzed by validated liquid chromatography-mass spectrometry (HPLC-MS/MS) methods. […] The population pharmacokinetic analysis was performed using non-linear mixed-effects modeling techniques (NONMEM, version VI 2.0, ICON Development Solutions, Ellicott City, Maryland, USA). The first-order conditional estimation algorithm with interaction was used. Data processing, diagnostic plots, and calculation of descriptive statistics were performed using R version 2.12.1 (http://www.rproject.org) and SAS version 9.2 (SAS Institute Inc, Cary, NC, USA). Bootstrap analysis was performed using Perl-speaks-NONMEM, version 3.5.3 [24, 25]. A sequential approach was used for population pharmacokinetic model development. […] Inter-individual variability (IIV, η) and inter-occasion variability (IOV, κ) were modeled using exponential random effect models. For testing IOV, each visit was defined as one occasion. […] Model selection was guided by change in objective function values (OFV), identifiability of parameters and precision of parameter estimates, correlation between the estimates of fixed-effect parameters, numerical stability, ability to obtain a successful COVARIANCE step, and visual inspection of basic goodness-of-fit plots. The effects of intrinsic patient factors (e.g., gender, age, body weight, ethnicity, laboratory values, and NSCLC histology) and extrinsic factors (e.g., smoking history and alcohol consumption) on pharmacokinetic parameters of nintedanib were evaluated by applying a stepwise forward inclusion/backward elimination approach. Combinations of covariates and model parameters to be tested were pre-specified based on prior knowledge, physiological plausibility, or general clinical interest (see Online Resource Table S2). Potential effects of patient population (NSCLC versus IPF) or treatment regimen (monotherapy versus combination therapy with docetaxel or pemetrexed) could not be distinguished from trials effects, and were, therefore, not re-evaluated during covariate analysis. To assess the effect of hepatic impairment on apparent total plasma clearance (CL/F) and relative bioavailability (F1), alanine transaminase (ALT), aspartate transaminase (AST), and total bilirubin (BIL) were tested individually and in combination using an adapted liver dysfunction group (LDF) composite developed for organ dysfunction studies by the Organ Dysfunction Working Group of the National Cancer Institute. In this classification, hepatic dysfunction is classified as mild (subdivided into two subgroups), moderate, or severe according to ALT, AST, and BIL levels relative to the upper limit of normal (ULN) (see Table 1). This categorization was preferred over the classical Child-Pugh classification (based on assessments of BIL, albumin, prothrombin time, encephalopathy, and ascites) commonly used to assess surgical risk in cirrhotic patients, as it has potential disadvantages for use in oncology patients. Creatinine clearance (CLCR) estimated by the Cockcroft-Gault equation [31] was used as surrogate for renal function. […]

ALAG [2]: 0.470 (–) h
CL/F (θCL) [2]: 875 (–) L/h
F1 higher in NSCLC phase II and LUME-Lung 2 trials than in LUME-Lung 1 and IPF phase II trials [2]: 30%
V2/F (θV2) [2]: 617 (–) L
V2 when applying non-flip-flop kinetics in the final model [2]: 10,700 L
Vd/F [2]: 465 L
absorption-rate constant, Phase II trials versus Phase III trials [2]: 2 fold
change in exposure by any individual covariate at extreme values relative to a typical patient [2]: ≤ 33%
covariate effect on F1, θAge [2]: 0.00942 (–)
difference in nintedanib pharmacokinetics for Black patients, alcohol consumption or UGT1A1 polymorphism status [2]: no substantial difference
dose linearity [2]: No major deviation from dose linearity
impact of gender, patient population, NSCLC histology, therapy regimen, ECOG status, liver metastases, mild or moderate renal impairment, LDH on nintedanib pharmacokinetics [2]: no statistically significant impact
increase of F1, mild 1 liver dysfunction category [2]: 8%
increase of F1, mild 2 liver dysfunction category [2]: 13%
ka (θka) [2]: 0.0391 (–) h^-1
ka (θka), first-order absorption-rate constant [2]: 0.0376 (7.77) h^−1
ka higher in phase II NSCLC and IPF trials than in the two NSCLC Phase III trials [2]: 120%
ka when applying non-flip-flop kinetics in the final model [2]: 1.64 h⁻¹
ka, absorption rate of a typical patient [2]: 0.0827 h⁻¹
lag time [2]: 25 min
percentage change in AUCτ,ss: Chinese/Taiwanese/Indian [2]: ↑33%
percentage change in AUCτ,ss: Korean [2]: ↓22%
percentage change in AUCτ,ss: age 45 years (5th percentile) [2]: ↓16%
percentage change in AUCτ,ss: age 76 years (95th percentile) [2]: ↑13%
percentage change in AUCτ,ss: current smoker [2]: Current smoker: ↓21%
ratios of AUCτ,ss for each factor other than ethnic origin [2]: 80–125%
half-life ([2]; absorption half-life): 8.38 h
half-life ([2]; elimination half-life (population mean)): 0.36 h
Compound: COC(=O)c1ccc2c(c1)NC(=O)/C2=C(\Nc1ccc(N(C)C(=O)CN2CCN(C)CC2)cc1)c1ccccc1 [nintedanib]
pharmacokinetic interaction between nintedanib and either docetaxel or pemetrexed [1]: no significant pharmacokinetic interaction
percentage change in AUCτ,ss: body weight 50 kg (5th percentile) [2]: ↑25%
percentage change in AUCτ,ss: body weight 100 kg (95th percentile) [2]: ↓19%
